Source: patent publication US20100173914A1, “PHARMACEUTICALS, COMPOSITIONS AND METHODS OF MAKING AND USING THE SAME” (priority 2007, published 2010)

How the values were obtained:
[1] = molecular target: T1, human adenosine A1 receptors (Homo sapiens, UniProt P30542); assay: Adenosine receptor binding: binding affinities at hA1 receptors ([3H]DPCPX displacement); conditions: displacement of [3H]DPCPX, membranes of CHO-K1 cells transfected with human A1
T1 construct: expressed in transfected cells; host or cells: CHO-K1
T1 sequence (P30542 1-326): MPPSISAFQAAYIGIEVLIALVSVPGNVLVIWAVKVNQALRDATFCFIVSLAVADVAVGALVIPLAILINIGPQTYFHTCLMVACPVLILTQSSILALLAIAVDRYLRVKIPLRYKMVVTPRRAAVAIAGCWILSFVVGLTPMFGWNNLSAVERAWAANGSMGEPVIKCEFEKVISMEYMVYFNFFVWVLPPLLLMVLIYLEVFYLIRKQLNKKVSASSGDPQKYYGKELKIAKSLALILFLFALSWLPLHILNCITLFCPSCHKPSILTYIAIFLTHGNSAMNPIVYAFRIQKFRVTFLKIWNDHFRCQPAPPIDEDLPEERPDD
From the text: Adenosine Receptor Binding: Binding Affinities at hA1 Receptors
The compounds were examined in an assay measuring in vitro binding to human adenosine A1 receptors by determining the displacement of the adenosine A1 receptor selective radioligand 8-Cyclopentyl-1,3-dipropylxanthine ([^3H]DPCPX) using standard techniques. See, for example, Lohse M J, et al., (1987), 8-Cyclopentyl-1,3-dipropylxanthine (DPCPX)—a selective high affinity antagonist radioligand for A1 adenosine receptors. Naunyn Schmiedebergs Arch Pharmacol., 336(2):204-10, which is incorporated by reference in its entirety.
Frozen CHO-K1 cells (transfected with a human adenosine A1 recepter expression vector) were homogenized in 130 mL of 50 mM Tris HCl buffer (pH 7.5) containing 10 mM MgCl2, and 0.1 IU/mL adenosine deaminase per pellet using a Ultra-Turrax homogeniser. The resultant homogenate was kept for immediate use in the binding. Binding assays were performed in a total volume of 250 μL, containing [^3H]-DPCPX (3.0 nM), membranes and additional drugs. Total binding was determined using drug dilution buffer (50 mM Tris-HCl pH:7.5, 10 mM MgCl2, 5% DMSO). Non-specific binding was determined using 300 μM N6-cyclohexyladenosine (CHA). Following incubation for 90 minutes at 21° C., assays were terminated by rapid filtration with GF/B filters (presoaked in 0.1% (w/v) polyethylenimine) using a Canberra Packard filtermate 196, washed 3 times with ice-cold Tris-HCl (pH 7.4). Filters were left to dry overnight, and Microscint-0 scintillation fluid was then added to the filters. The filters were then left for at least 2 hours before the radioactivity was assessed using a Canberra Packard TopCount microplate scintillation counter.
To determine the free ligand concentration, three vials were counted with 25 μL of [^3H]DPCPX containing 4 mL of Ultima-Gold MV scintillant on a Beckman LS6500 multi-purpose scintillation counter.
(§1) Data was analysed using a 4 parameter logistical equation and non-linear regression which yields affinity constants (pIC50), and slope parameters:
where E is the quantity of binding and [A] is the competitor concentration. The K, is then determined using the Cheng-Prusoff equation: […]

[2] = molecular target: T2, human adenosine A2A receptors (Homo sapiens, UniProt P29274); assay: Adenosine receptor binding: binding affinities at hA2A receptors ([3H]CGS-21680 displacement); conditions: for Ki: displacement of [3H]CGS-21680, HEK-293 cell membranes; for A2A/A1 selectivity ratio (Ki A2A/Ki A1): ratio of measured Ki values at hA2A and hA1
T2 construct: host or cells: HEK-293
From the text: Adenosine Receptor Binding: Binding Affinities at hA2A Receptors
The compounds were examined in an assay measuring in vitro binding to human adenosine A2A receptors by determining the displacement of the adenosine A2A receptor selective radioligand 4-[2-[[6-Amino-9-(N-ethyl-β-D-ribofuranuronamidosyl)-9H-purin-2-yl]amino]ethyl]benzenepropanoic acid hydrochloride ([^3H]CGS-21680) using standard techniques. See, for example, Jarvis et al., J Pharmacol Exp Ther., 251(3):888-93, which is incorporated by reference in its entirety.
Frozen HEK-293 cells were homogenized in 65 mL of 50 mM Tris HCl buffer (pH 7.5) containing 10 mM MgCl2, and 0.1 IU/mL adenosine deaminase per pellet using a Ultra-Turrax homogenizer. The resultant homogenate was kept for immediate use in the binding assay.
Binding assays were performed in a total volume of 250 μL, containing [^3H]-CGS21680 (20.0 nM), membranes and additional drugs. Total binding was determined using drug dilution buffer (50 mM Tris-HCl pH 7.5, 10 mM MgCl2, 5% DMSO). Non-specific binding was determined using 300 μM CHA. Following incubation for 90 minutes at 21° C., assays were terminated by rapid filtration with GF/B filters (presoaked in 0.1% (w/v) polyethylenimine) using a Canberra Packard filtermate 196, washed 3 times with ice-cold Tris-HCl (pH 7.4). Filters were left to dry overnight, and Microscint-0 scintillation fluid was then added to the filters. The filters were then left for at least 2 hours before the radioactivity was assessed using a Canberra Packard TopCount microplate scintillation counter.
To determine the free ligand concentration, three vials were counted with 25 μL of [^3H]CGS21680 containing 4 mL of Ultima-Gold MV scintillant on a Beckman LS6500 multi-purpose scintillation counter.
as §1
where E is the quantity of binding and [A] is the competitor concentration. The Ki is then determined using the Cheng-Prusoff equation: […]

[3] = cited from earlier work
[4] = cited from earlier work; remark: listed apart in the source

T2 sequence (P29274 whole entry): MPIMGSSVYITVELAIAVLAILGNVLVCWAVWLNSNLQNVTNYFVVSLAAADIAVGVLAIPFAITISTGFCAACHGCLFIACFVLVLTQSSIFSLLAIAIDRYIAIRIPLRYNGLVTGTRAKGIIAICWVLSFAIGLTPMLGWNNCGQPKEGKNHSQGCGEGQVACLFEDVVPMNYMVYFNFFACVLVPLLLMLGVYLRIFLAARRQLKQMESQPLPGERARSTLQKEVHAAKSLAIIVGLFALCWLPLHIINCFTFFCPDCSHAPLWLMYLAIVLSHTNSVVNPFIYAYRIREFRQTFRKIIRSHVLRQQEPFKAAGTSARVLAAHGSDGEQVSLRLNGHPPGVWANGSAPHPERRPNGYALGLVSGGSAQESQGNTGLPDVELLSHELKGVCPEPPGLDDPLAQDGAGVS

Ki [1] | Ki [2] | A2A/A1 selectivity ratio (Ki A2A/Ki A1) [2] | Compound | also measured
1000 to 10000 nM | 100 to 1000 nM | G (10 to 20) | COc1cc(Cn2nnc3c(-c4ccccc4)nc(N)nc32)ccc1NS(=O)(=O)O [4-[(5-amino-7-phenyl-3H-[1,2,3]triazolo[4,5-d]pyrimidin-3-yl)methyl]-2-methoxyphenylsulfamic acid] | –
100 to 1000 nM | ≤ 100 nM | H (more than 20) | Cc1cc(Cn2nnc3c(-c4ccccc4)nc(N)nc32)ccc1NS(=O)(=O)O [4-[(5-amino-7-phenyl-3H-[1,2,3]triazolo[4,5-d]pyrimidin-3-yl)methyl]-2-methylphenylsulfamic acid] | –
> 10000 nM | 1000 to 10000 nM | F (5 to 10) | COc1cc(NS(=O)(=O)O)ccc1Cn1nnc2c(-c3ccccc3)nc(N)nc21 [4-[(5-amino-7-phenyl-3H-[1,2,3]triazolo[4,5-d]pyrimidin-3-yl)methyl]-3-methoxyphenylsulfamic acid] | –
100 to 1000 nM | ≤ 100 nM | G (10 to 20) | Cc1ccc(Cn2nnc3c(-c4ccccc4)nc(N)nc32)cc1NS(=O)(=O)O [5-[(5-amino-7-phenyl-3H-[1,2,3,]triazolo[4,5-d]pyrimidin-3-yl)methyl]-2-methylphenylsulfamic acid] | –

Continued, compound first:

Compound | Ki [1] | Ki [2] | A2A/A1 selectivity ratio (Ki A2A/Ki A1) [2] | also measured
Nc1nc(-c2cccs2)c2nnn(Cc3ccc(NS(=O)(=O)O)cc3)c2n1 [4-[(5-amino-7-(thiophen-2-yl)-3H-[1,2,3]triazolo[4,5-d]pyrimidin-3-yl)methyl]phenylsulfamic acid] | 1000 to 10000 nM | 100 to 1000 nM | G (10 to 20) | –
COc1ccccc1-c1nc(N)nc2c1nnn2Cc1ccc(C)c(NS(=O)(=O)O)c1 [5-[(5-amino-7-(2-methoxyphenyl)-3H-[1,2,3]triazolo[4,5-d]pyrimidin-3-yl)methyl]-2-methylphenylsulfamic acid] | 1000 to 10000 nM | 1000 to 10000 nM | E (less than 5) | –
Cc1ccc(-c2nc(N)nc3c2nnn3Cc2ccc(C)c(NS(=O)(=O)O)c2)o1 [5-[(5-amino-7-(5-methylfuran-2-yl)-3H-[1,2,3]triazolo[4,5-d]pyrimidin-3-yl)methyl]-2-methylphenylsulfamic acid] | 100 to 1000 nM | ≤ 100 nM | H (more than 20) | –
Cc1ccc(Cn2nnc3c(-c4ccco4)nc(N)nc32)cc1NS(=O)(=O)O [5-[(5-amino-7-(furan-2-yl)-3H-[1,2,3]triazolo[4,5-d]pyrimidin-3-yl)methyl]-2-methylphenylsulfamic acid] | 100 to 1000 nM | ≤ 100 nM | H (more than 20) | –
Cc1ccc(Cn2nnc3c(-c4cccs4)nc(N)nc32)cc1NS(=O)(=O)O [5-[(5-amino-7-(thiophen-2-yl)-3H-[1,2,3]triazolo[4,5-d]pyrimidin-3-yl)methyl]-2-methylphenylsulfamic acid] | 1000 to 10000 nM | ≤ 100 nM | H (more than 20) | –
CCCn1c(=O)c2c(nc(/C=C/c3ccc(OC)c(OC)c3)n2C)n(CCC)c1=O [KF 17837, E-8-(3,4-dimethoxystyryl)-1,3-dipropyl-7-methylxanthine] | – | – | – | anticataleptic effects of a subthreshold dose of L-DOPA plus benserazide ([3]; in vivo): potentiated; catalepsy induced by haloperidol and reserpine ([3]; in vivo): reduced; cataleptic responses induced by intracerebroventricular CGS 21680 ([3]; oral administration): significantly ameliorated
Cn1c(=O)c2[nH]cnc2n(C)c1=O [Theophylline, 1,3-dimethylxanthine] | – | – | – | serum theophylline levels ([4]; 150 mg/day slow release oral, after one week, Parkinsonian patients): 4.44 mg/L; mean objective disability scores ([4]; 15 Parkinsonian patients, up to 12 weeks, 150 mg/day): significant improvements; patients reporting moderate or marked subjective improvement ([4]; of 15 Parkinsonian patients, up to 12 weeks, 150 mg/day): 11
